# Assay results taken from PMC4013123 (PLoS ONE, 2014).
# Legend:
# [1] = biological target: WT MPH (methyl parathion hydrolase) (Ochrobactrum sp. M231, UniProt B2Z3X1)
# Text: steady-state kinetics of purified enzyme (standard assay by reference) on WT MPH (methyl parathion hydrolase)
# D10-MPH = D10-MPH (Ochrobactrum sp. M231, UniProt B2Z3X1)
# Text: steady-state kinetics of purified enzyme (standard assay by reference) on D10-MPH
# Sequence of D10-MPH (B2Z3X1 entry or part of it): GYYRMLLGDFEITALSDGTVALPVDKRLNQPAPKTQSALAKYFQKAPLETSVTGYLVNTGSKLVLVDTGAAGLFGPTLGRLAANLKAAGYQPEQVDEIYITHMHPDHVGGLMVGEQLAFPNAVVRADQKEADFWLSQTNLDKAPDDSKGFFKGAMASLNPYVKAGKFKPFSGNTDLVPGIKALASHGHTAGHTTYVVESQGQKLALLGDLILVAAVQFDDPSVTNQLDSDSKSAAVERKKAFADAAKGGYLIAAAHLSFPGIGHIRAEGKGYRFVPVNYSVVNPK
# Sequence of WT MPH (methyl parathion hydrolase) (B2Z3X1 entry or part of it): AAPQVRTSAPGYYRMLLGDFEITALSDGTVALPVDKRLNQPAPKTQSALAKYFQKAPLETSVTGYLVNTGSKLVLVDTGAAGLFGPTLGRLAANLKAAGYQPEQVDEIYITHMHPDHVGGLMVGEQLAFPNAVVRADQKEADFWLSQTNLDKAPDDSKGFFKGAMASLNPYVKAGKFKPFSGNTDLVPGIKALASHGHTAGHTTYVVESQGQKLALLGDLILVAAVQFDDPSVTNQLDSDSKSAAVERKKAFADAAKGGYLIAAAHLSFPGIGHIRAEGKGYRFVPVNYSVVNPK
compound,measurement,setting,value
COP(=S)(OC)Oc1ccc([N+](=O)[O-])cc1 [methyl parathion],Km,[1],73.2 ± 4.7 µM
same,Km,D10-MPH,86.9 ± 4.01 µM
